Experimental findings from US6380257B1, “Aromatic di-keto derivatives, processes for their production and their use as a pharmaceutical” (Aventis Pharma Deutschland GmbH, priority 1999, dated 2002) are described below.

The target in series [1] is T1, glucose-6-phosphate translocase from rat liver microsomes (Rattus norvegicus, UniProt F7EWB7).
T1 construct: glucose-6-phosphate translocase from rat liver microsomes; from tissue; host or cells: rat liver microsomes
T1 sequence (F7EWB7 1-429): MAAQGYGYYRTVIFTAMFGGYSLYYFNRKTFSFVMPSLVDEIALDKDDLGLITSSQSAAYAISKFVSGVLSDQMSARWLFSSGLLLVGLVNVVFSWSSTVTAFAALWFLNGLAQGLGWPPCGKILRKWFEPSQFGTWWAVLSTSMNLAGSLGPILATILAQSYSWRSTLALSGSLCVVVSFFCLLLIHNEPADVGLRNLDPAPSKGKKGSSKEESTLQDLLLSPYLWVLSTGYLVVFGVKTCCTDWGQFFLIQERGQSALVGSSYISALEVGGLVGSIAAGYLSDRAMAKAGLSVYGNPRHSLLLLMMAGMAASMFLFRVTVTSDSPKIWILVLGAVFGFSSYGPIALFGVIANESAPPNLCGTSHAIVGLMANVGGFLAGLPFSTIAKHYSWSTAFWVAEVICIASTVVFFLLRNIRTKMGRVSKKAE
The series can be described thus: Inhibition of glucose-6-phosphate translocase from rat liver microsomes. The class given is biochemical. (In general: Liver microsomes are a subcellular fraction often used to study metabolism.)

The nature of series [2]: Stability of mumbaistatin in solution. The class given is physicochemical.
The target in series [3] is T2, microsomal glucose-6-phosphatase (Rattus norvegicus, UniProt P43428).
T2 construct: from tissue; host or cells: liver microsomes (rat inferred)
T2 sequence (P43428 1-357): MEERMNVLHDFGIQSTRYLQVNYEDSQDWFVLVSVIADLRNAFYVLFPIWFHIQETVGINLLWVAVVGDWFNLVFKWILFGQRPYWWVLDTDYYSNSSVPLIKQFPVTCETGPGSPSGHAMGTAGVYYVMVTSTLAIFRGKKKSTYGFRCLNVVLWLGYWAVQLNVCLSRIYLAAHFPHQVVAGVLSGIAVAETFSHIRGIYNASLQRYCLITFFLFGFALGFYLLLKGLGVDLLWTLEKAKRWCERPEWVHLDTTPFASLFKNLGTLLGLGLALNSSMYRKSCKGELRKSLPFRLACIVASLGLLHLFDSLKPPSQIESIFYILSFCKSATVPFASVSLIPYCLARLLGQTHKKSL
Briefly: Inhibition of microsomal glucose-6-phosphatase. The class given is biochemical.

Read-outs that look alike come from different tables or passages of the source.

As for `COC(=O)CC1CCC2(O1)OC1(OC(=O)c3c(OC)cc4c(c31)C(=O)c1c(O)cccc1C4=O)c1c(OC)cccc12` (stereo not shown) [XIXB], the half-maximal inhibitory concentration (IC50) (as a rule, the concentration that inhibits the measured activity by half) in series [1] (read-out: Inhibition of glucose-6-phosphate translocase: IC50) was > 100000 nM.

With `NC(=O)c1c(O)cc2c(c1C(=O)c1c(O)cccc1C1(O)CCC(CC(=O)O)O1)C(=O)c1c(O)cccc1C2=O` (stereo not shown) [XXIIIA], the IC50 in series [1] (read-out: inhibits glucose-6-phosphate translocase with an IC50) was ~1000 nM.

Regarding mumbaistatin, in series [2] (acid pH, conversion e.g. to compound of formula XIXD), the “stability in solution at acid pH” value is given as “rapidly undergoes a complex conversion”. In series [2] (pH of around 6 to 9), the stability in solution result is “limited stability”. The IC50 is ~5 nM in series [1] (rat liver microsomes, listed as mumbaistain, read-out: Inhibition of glucose-6-phosphate translocase, IC50) and 5 nM in series [1] (rat liver microsomes, read-out: Inhibition of glucose-6-phosphate translocase, IC50). Also, in series [3], the “Inhibition of microsomal glucose-6-phosphatase in 10 μM solution” value is listed as “activity was not demonstrable”.
